Where two headings read alike, the source gives them in different places.
What was measured:
[1] = system: recombinant virus, specimen R5 (215Y, 41L, 74V, 100I, 103N); experiment: RVA susceptibility to RTI, recombinant virus from patient specimen R5; format: cell-based, HIV-1; settings: for Resistance Index (geometric mean): specimen R5, genotype 215Y, 41L, 74V, 100I, 103N, IC50 ratio to NL43, '>' = IC50 above the detectable range in all tests; for susceptibility / level of resistance (in words): specimen R5
Method: (§1) The determination of the susceptibility of an HIV virus is performed as follows: 293 T cells are transfected with 7.5 μg of pSRT plasmid linearised with NruI, 0.1 μg of pVSV-G plasmid and 0.5 and 1 μg of product from the HIV reverse transcriptase PCR reaction. The transfection precipitate is removed from the cells after 18 hours of incubation and the fresh growth medium is added. After 24 hours of culture, the supernatant is clarified by centrifugation (500 g, 15 minutes) and transferred on P4 indicator cells which have been pre-incubated with serial dilutions of a reverse transcriptase inhibitor, in triplicate wells, for four hours. The range of inhibitor concentrations used varies according to the compounds. The signal produced by activating the marker gene was developed with CPRG for 48 hours, as for the analysis of the susceptibility to a reverse transcriptase inhibitor and the IC50 index was calculated using the median effect equation.
(§2) The reproducibility of the method to determine the susceptibility of recombinant virus (RVA) to reverse transcriptase inhibitors (RTI) was evaluated with a series of tests on 5 specimens, selected so as to represent a wide range of susceptibility profiles, between 4 and 8 tests per specimen, using RNA preparations and separate PCR reactions.
(§3) (b) The Resistance Index is the ratio of the IC50 in the specimen with reference to that of NL43 determined in parallel.

[2] = system: recombinant virus, specimen R1 (69N/T, 70R); experiment: RVA susceptibility to RTI, recombinant virus from patient specimen R1; format: cell-based, HIV-1; settings: specimen R1, genotype 69N/T, ratio of IC50 of specimen to NL43 in parallel
Method: as §1, §2, §3

[3] = system: recombinant virus, specimen R2 (multi-compound resistance complex 62V, 75I, 77L, 116Y, 151M; 184V; 181C, 190A); experiment: RVA susceptibility to RTI, recombinant virus from patient specimen R2; format: cell-based, HIV-1; settings: specimen R2, genotype 41L, 67N, 69N, 751, 77L, 115F, 208Y, 215F, 219Q, IC50 ratio to NL43, '>' = IC50 above the detectable range in all tests
Method: as §1, §2, §3

[4] = system: NL4-3 reference virus; experiment: Recombinant virus assay (RVA): susceptibility to reverse transcriptase inhibitors, single replication cycle, P4 indicator cells; format: cell-based, HIV-1
Method: as §1
The pSRT plasmid comprising a deletion in the region coding for pol ranging from reverse transcriptase codon 24 (base 2618) to reverse transcriptase codon 432 (base 3872) includes all the mutations associated with a resistance phenomenon known to date. The homologous sequences of the PCR reverse transcriptase product ranging 88 base pairs upstream and 186 base pairs downstream from the deletion in pSRT. The transfections to determine the susceptibility to reverse transcriptase inhibitors are performed with a 293T cell line with a strong capacity to be transfected rather than with HeLa cells. This is not a problem since the cells are eliminated from the supernatant containing the virus by centrifugation before the transfer of P4 cells.
Given that the early phases of virus replication, including reverse transcription, take place in indicator P4 cells in this type of determination, these cells are treated with serial dilutions of reverse transcriptase inhibitors.
(§4) The inhibitor concentration ranges are selected as a function of the cellular toxicity of each compound and the IC50/IC90 ratio for the susceptibility of resistant isolates (Table 1). […] A range of four dilutions in series, starting at 200 μM, was used for abacavir, enabling the detection of up to 60 times more resistance.
For RVA reverse transcriptase, the IC50 index is used rather than the IC90 index since the detection of the IC90 index for resistant viruses could require toxic levels of compound for most reverse transcriptase inhibitors.

[5] = system: recombinant virus, specimen R3 (184V, 215F); experiment: RVA susceptibility to RTI, recombinant virus from patient specimen R3; format: cell-based, HIV-1; settings: specimen R3, genotype 184V, 21SF; IC50 ratio to NL43; '>' = IC50 above the detectable range in all tests
Method: as §1, §2, §3

[6] = system: P4 cells; format: cell-based; settings: cellular toxicity for P4 indicator cells
Method: as §4

[7] = system: recombinant virus, specimen R4 (41L, 67N, 69D, 184V, 190A, H208Y, 210W, 215Y); experiment: RVA susceptibility to RTI, recombinant virus from patient specimen R4; format: cell-based, HIV-1; settings: specimen R4, genotype 41L, IC50 ratio to NL43, '>' = IC50 above the detectable range in all tests
Method: as §1, §2, §3

[8] = system: resistant virus LAI-L91H; experiment: Susceptibility of recombinant HIV viruses to fusion inhibitors: LAI-L91H; format: cell-based, HIV-1; settings: reference virus not given
From the text: (§5) The invention also relates to an analytical method to determine the susceptibility of an HIV virus to a fusion inhibiting compound targeting HIV-1 gp41 protein, consisting of performing the amplification in step b either with the pair of primers SEQ ID NO: 13, SEQ ID No: 14 followed by a second amplification with the pair of primers SEQ ID No: 15, SEQ ID No: 16, or with the pair of primers SEQ ID No: 17, SEQ ID No: 18 followed by a second amplification with the pair of primers SEQ ID No: 18, SEQ ID No: 16, adding said fusion inhibiting compound or not, possibly at different concentrations, during the culture of the cell host obtained in step e, before step f and comprising in step g the comparison of the expression of the marker gene with and without fusion inhibiting compound targeting HIV-1 gp41.
The recombinations obtained by performing the amplification of the step (b) with the pair of primers FuA: 5′[…]3′ (SEQ ID No: 23) et FuB: 5′ […]3′ (SEQ ID No: 24) followed by a second amplification step, performed with the primer FuC: 5′[…]3′ (SEQ ID No: 25) and a mixture of the following primers: FuD1: 5′[…]3′ (SEQ ID No: 26) FuD2: 5′[…]3′ (SEQ ID No: 27) are highly efficient. […]
The increase of the IC50index of the resistant virus LAI-L91H (Labrosse B. et al. J Virol. 2000 vol 74 pages 2142-2150) by reference to RPR103611 has been measured.

[9] = system: highly resistant virus NL-DIM; experiment: Susceptibility of recombinant HIV viruses to fusion inhibitors: NL-DIM; format: cell-based, HIV-1
From the text: as §5, with “gp41. […]” for “gp41.”
(§6) The IC50 index for a highly resistant virus NL-DIM ( Rimski L. T. et al. J. Virol. 1998, vol 72, pages 986-993) and for the NL4.3 virus (which is partially resistant) has been measured by reference to the DP178 inhibitor.

[10] = system: NL4.3 virus (partially resistant); experiment: Susceptibility of recombinant HIV viruses to fusion inhibitors: NL4.3; format: cell-based, HIV-1
From the text: as §5, with “gp41. […]” for “gp41.”
as §6

[11] = system: 22 viruses from specimens of patients with a standard treatment; experiment: RVA susceptibility to RTI, panel of 22 patient viruses compared with NL43; format: cell-based, HIV-1; settings: for median RI (Resistance Index): median over 22 viruses, 3 RVA replicates, reference NL43
Method: as §1
To determine whether NL43 is a suitable reference virus for comparison with clinical isolates, a panel of specimens taken from patients with a standard treatment were tested on 3 RVA replicates for their susceptibility to reverse transcriptase inhibitors.

[12] = Human immunodeficiency virus 1, NL43, NL4-3 reference virus, P4 cells, geometric mean of 20 repeated tests, read-out: Geometric mean IC50
[13] = Human immunodeficiency virus 1, NL43, read-out: Geometric mean IC50

| Compound | Resistance Index (geometric mean) [1] | Resistance Index (geometric mean) [2] | Resistance Index (geometric mean) [3] | IC50 [4, 12] | Resistance Index (geometric mean) [5] | Resistance Index (geometric mean) [7] | susceptibility / level of resistance (in words) [1] | further results |
| --- | --- | --- | --- | --- | --- | --- | --- | --- |
| Nc1nc(NC2CC2)c2ncn([C@H]3C=C[C@@H](CO)C3)c2n1 [Abacavir, abacavir] | 1.7 | 1.1 | > | 2230 nM | 4.3 | 4.3 |  | IC50 index / toxicity for P4 cells [6]: approximately 250 μM |
| C=C(C)[C@@H]1CC[C@]2(C(=O)NCCCCCCCC(=O)N[C@@H](CC(C)C)[C@@H](O)CC(=O)O)CC[C@]3(C)[C@H](CC[C@@H]4[C@@]5(C)CC[C@H](O)C(C)(C)[C@@H]5CC[C@]43C)[C@@H]12 [RPR103611] |  |  |  |  |  |  |  | increase of IC50 index [8]: more than 100 times |
| Cc1cn([C@H]2C[C@H](N=[N+]=[N-])[C@@H](CO)O2)c(=O)[nH]c1=O [AZT, zidovudine] |  |  |  | 18 nM |  |  | remains susceptible |  |
| enfuvirtide |  |  |  |  |  |  |  | increase of IC50 index ([9]; NL-DIM by reference to LAI virus (culture adapted)): more than 100 times; increase of IC50 index ([9]; NL-DIM by reference to T5A1 virus (primary plasma virus)): more than 80 times; increase of IC50 index ([10]; NL4.3 by reference to LAI): 12,5 times; increase of IC50 index ([10]; NL4.3 by reference to T5A1 virus): 10 times |
| Cc1cn([C@H]2C=C[C@@H](CO)O2)c(=O)[nH]c1=O [D4T, stavudine] | 1.7 | 1.4 | 43.5 |  | 3.2 | 3.6 |  | median RI (Resistance Index) [11]: approximately 0.92; IC50 [4, 13]: 444 nM |
| O=C1Nc2ccc(Cl)cc2[C@@](C#CC2CC2)(C(F)(F)F)O1 [Efavirenz, efavirenz] | > | 1.0 | 74.9 |  | 1.0 | 1.0 | high levels of resistance | IC50 [4, 13]: 716 nM |
| O=c1[nH]cnc2c1ncn2[C@H]1CC[C@@H](CO)O1 [DDI] | 2.6 | 1.4 | 26.9 |  | 3.1 | 3.1 |  | IC50 ([4]; NL4-3 reference virus, P4 cells, geometric mean of 20 repeated tests, read-out: Geometric mean IC50): 1610 nM |
| Nc1ccn([C@@H]2CS[C@H](CO)O2)c(=O)n1 [3TC, lamivudine] | 1.8 | 1.3 |  | 1510 nM |  |  |  | median RI (Resistance Index) [11]: ~1.22 |
| Cc1ccnc2c1NC(=O)c1cccnc1N2C1CC1 [Nevirapine, nevirapine] | 580.5 | 2.2 | > | 37 nM | 1.2 | 1.2 | high levels of resistance | resistance index ([11]; one virus of the panel with mutation on codon 98 (A for S) of reverse transcriptase): 11.0 |

— patent publication US20040053219A1, “Method for analysing human immunodeficiency virus (HIV) phenotypic characteristics” (priority 2000, published 2004)
